Results reported in patent US11673890B2, “N1-pyrazolospiroketone acetyl-CoA carboxylase inhibitors” (Pfizer Inc., priority 2010, dated 2023).
Like-named read-outs stand apart in the source and are kept apart here.

Columns and labels:
[1] = biological target: T1, recombinant human ACC2 (rhACC2) (Homo sapiens, UniProt O00763, V2141I); test: recombinant hACC2 Transcreener assay (ADP detection FP); assay type: biochemical; settings: 50 μM ATP, minimum of n=3
T1 construct: a full length Cytomax clone of ACC2 was purchased from Cambridge Bioscience Limited; made in house; host or cells: CHO cells (tetracycline-inducible, pcDNA5 FRT TO-TOPO)
T1 sequence (O00763 whole entry V2141I): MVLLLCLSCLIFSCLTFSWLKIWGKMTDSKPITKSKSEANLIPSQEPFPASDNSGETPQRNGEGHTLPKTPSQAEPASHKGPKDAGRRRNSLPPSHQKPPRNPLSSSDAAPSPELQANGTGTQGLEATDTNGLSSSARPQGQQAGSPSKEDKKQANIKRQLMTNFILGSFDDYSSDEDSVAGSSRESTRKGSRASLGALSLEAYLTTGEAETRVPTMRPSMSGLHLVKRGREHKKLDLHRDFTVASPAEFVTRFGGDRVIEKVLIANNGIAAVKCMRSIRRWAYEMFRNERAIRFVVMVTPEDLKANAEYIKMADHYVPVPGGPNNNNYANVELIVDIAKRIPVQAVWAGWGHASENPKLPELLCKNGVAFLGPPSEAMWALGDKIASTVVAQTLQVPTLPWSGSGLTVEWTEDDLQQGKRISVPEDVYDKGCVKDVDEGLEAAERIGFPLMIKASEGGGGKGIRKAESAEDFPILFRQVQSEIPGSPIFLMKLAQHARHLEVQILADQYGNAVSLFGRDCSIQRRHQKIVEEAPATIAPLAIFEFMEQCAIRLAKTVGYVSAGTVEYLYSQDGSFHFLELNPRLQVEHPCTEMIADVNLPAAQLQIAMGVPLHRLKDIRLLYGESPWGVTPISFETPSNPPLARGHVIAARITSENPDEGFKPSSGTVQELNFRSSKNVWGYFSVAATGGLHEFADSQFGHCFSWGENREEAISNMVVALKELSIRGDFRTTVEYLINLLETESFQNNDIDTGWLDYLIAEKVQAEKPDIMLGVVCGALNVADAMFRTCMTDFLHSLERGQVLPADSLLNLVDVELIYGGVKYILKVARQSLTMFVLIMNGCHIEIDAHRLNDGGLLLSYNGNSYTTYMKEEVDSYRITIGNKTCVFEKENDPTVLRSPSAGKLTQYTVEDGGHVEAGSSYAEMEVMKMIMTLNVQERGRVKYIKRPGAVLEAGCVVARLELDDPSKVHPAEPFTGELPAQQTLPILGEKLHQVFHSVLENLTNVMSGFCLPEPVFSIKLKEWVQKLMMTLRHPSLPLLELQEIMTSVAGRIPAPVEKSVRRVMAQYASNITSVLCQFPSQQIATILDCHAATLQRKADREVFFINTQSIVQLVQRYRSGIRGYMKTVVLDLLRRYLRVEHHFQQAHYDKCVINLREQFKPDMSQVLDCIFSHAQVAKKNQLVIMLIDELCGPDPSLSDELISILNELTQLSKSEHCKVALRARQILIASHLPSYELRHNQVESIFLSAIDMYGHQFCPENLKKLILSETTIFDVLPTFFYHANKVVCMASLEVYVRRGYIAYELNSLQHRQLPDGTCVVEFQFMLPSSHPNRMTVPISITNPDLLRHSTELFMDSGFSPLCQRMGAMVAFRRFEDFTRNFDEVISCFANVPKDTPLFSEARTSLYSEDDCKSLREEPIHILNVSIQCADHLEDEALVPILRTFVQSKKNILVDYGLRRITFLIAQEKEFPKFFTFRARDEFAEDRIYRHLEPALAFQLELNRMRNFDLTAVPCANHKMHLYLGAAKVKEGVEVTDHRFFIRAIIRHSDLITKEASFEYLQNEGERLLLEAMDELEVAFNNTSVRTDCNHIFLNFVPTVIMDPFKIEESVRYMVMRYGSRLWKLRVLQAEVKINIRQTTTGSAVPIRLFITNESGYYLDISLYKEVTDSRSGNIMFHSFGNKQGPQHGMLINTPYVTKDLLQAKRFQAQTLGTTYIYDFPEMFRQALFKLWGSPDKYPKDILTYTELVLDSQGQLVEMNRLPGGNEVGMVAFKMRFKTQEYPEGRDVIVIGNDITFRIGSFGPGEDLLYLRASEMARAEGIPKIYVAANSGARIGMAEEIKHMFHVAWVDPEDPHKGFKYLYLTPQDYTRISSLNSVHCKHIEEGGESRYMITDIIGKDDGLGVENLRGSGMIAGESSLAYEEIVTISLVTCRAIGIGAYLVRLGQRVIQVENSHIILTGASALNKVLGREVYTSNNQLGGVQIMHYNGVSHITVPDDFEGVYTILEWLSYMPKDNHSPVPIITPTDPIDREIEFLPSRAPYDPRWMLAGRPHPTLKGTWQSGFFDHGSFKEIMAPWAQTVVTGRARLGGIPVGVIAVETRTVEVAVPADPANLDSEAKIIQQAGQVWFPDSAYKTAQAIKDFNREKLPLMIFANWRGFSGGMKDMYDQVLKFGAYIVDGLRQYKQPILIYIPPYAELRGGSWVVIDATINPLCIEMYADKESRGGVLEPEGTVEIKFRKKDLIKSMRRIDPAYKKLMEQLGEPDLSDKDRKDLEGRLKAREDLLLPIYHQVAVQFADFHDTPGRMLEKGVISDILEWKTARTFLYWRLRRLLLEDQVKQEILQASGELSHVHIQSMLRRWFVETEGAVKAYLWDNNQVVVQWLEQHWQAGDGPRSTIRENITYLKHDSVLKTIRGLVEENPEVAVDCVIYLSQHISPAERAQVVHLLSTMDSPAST
Method: For example direct inhibition of ACC activity, for the compound of Formula (1) was determined using preparations of recombinant human ACC1 (rhACC1) and recombinant human ACC2 (rhACC2). Representative sequences of the recombinant human ACC1 and ACC2 that can be used in the assay are provided in FIG. 1 (SEQ ID NO. 1) and FIG. 2 (SEQ. ID NO. 2), respectively.
[3] Preparation of rhACC2. Human ACC2 inhibition was measured using purified recombinant human ACC2 (hrACC2). Briefly, a full length Cytomax clone of ACC2 was purchased from Cambridge Bioscience Limited and was sequenced and subcloned into PCDNA5 FRT TO-TOPO (Invitrogen, Carlsbad, Calif.). The ACC2 was expressed in CHO cells by tetracycline induction and harvested in 5 liters of DMEM/F12 with glutamine, biotin, hygromycin and blasticidin with 1 μg/mL tetracycline (Invitrogen, Carlsbad, Calif.). The conditioned medium containing ACC2 was then applied to a Softlink Soft Release Avidin column (Promega, Madison, Wis.) and eluted with 5 mM biotin. 4 mgs of ACC2 were eluted at a concentration of 0.05 mg/mL (determined by A280) with an estimated purity of 95% ([…]). The purified ACC2 was dialyzed in 50 mM Tris, 200 mM NaCl, 4 mM DTT, 2 mM EDTA, and 5% glycerol. The pooled protein was frozen and stored at −80° C., with no loss of activity upon thawing. For measurement of ACC2 activity and assessment of ACC2 inhibition, test compounds were dissolved in DMSO and added to the rhACC2 enzyme as a 5× stock with a final DMSO concentration of 1%.
[4] Measurement of human ACC2 inhibition. hACC2 was assayed in a Costar #3676 (Costar, Cambridge, Mass.) 384-well plate using the Transcreener ADP detection FP assay kit (Bellbrook Labs, Madison, Wis.) using the manufacturer's recommended conditions for a 50 uM ATP reaction. The final conditions for the assay were 50 mM HEPES, pH 7.2, 5 mM MgCl2, 5 mM tripotassium citrate, 2 mM DTT, 0.1 mg/mL BSA, 30 μM acetyl-CoA, 50 μM ATP, and 8 mM KHCO3. Typically, a 10 μl reaction was run for 50 min at 25° C., and 10 μl of Transcreener stop and detect buffer was added and the combination incubated at room temp for an additional 1 hour. The data was acquired on an Envision Fluorescence reader (Perkinelmer) using a 620 excitation Cy5 FP general dual mirror, 620 excitation Cy5 FP filter, 688 emission (S) and a 688 (P) emission filter.
The results using the recombinant hACC1 and recombinant hACC2 Transcreener assays described above are summarized in the table below for the Compounds of Formula (I) exemplified in the Examples above. All of the examples in both assays were run with a minimum of n=3.

[2] = biological target: T2, recombinant human ACC1 (rhACC1) (Homo sapiens, UniProt Q13085, DEL44-44); test: recombinant hACC1 Transcreener assay (ADP detection FP); assay type: biochemical
T2 construct: infected with recombinant baculovirus containing full length human ACC1 cDNA; made in house; host or cells: SF9 insect cells (baculovirus)
Method: For example direct inhibition of ACC activity, for the compound of Formula (1) was determined using preparations of recombinant human ACC1 (rhACC1) and recombinant human ACC2 (rhACC2).
[1] Preparation of rhACC1. Two liters of SF9 cells, infected with recombinant baculovirus containing full length human ACC1 cDNA, were suspended in ice-cold lysis buffer (25 mM Tris, pH 7.5; 150 mM NaCl; 10% glycerol; 5 mM imidazole (EMD Bioscience; Gibbstown, N.J.); 2 mM TCEP (BioVectra; Charlottetown, Canada); Benzonase nuclease (10000 U/100 g cell paste; Novagen; Madison, Wis.); EDTA-free protease inhibitor cocktail (1 tab/50 mL; Roche Diagnostics; Mannheim, Germany). Cells were lysed by 3 cycles of freeze-thaw and centrifuged at 40,000×g for 40 minutes (4° C.). Supernatant was directly loaded onto a HisTrap FF crude column (GE Healthcare; Piscataway, N.J.) and eluted with an imidazole gradient up to 0.5 M over 20 column volumes (CV). ACC1-containing fractions were pooled and diluted 1:5 with 25 mM Tris, pH 7.5, 2 mM TCEP, 10% glycerol and direct loaded onto a CaptoQ (GE Healthcare) column and eluted with an NaCl gradient up to 1 M over 20 CV's. Phosphate groups were removed from purified ACC1 by incubation with lambda phosphatase (100 U/10 μM target protein; New England Biolabs; Beverly, Mass.) for 14 hours at 4° C.; okadaic acid was added (1 μM final concentration; Roche Diagnostics) to inhibit the phosphatase. Purified ACC1 was exchanged into 25 mM Tris, pH 7.5, 2 mM TCEP, 10% glycerol, 0.5 M NaCl by 6 hour dialysis at 4° C. Aliquots were prepared and frozen at −80° C.
[2] […] The final conditions for the assay were 50 mM HEPES, pH 7.2, 10 mM MgCl2, 7.5 mM tripotassium citrate, 2 mM DTT, 0.1 mg/mL BSA, 30 μM acetyl-CoA, 50 μM ATP, and 10 mM KHCO3. Typically, a 10 μl reaction was run for 120 min at 25° C., and 10 μl of Transcreener stop and detect buffer was added and the combination incubated at room temp for an additional 1 hour.
All of the examples in both assays were run with a minimum of n=3.

[3] = recombinant hACC1 Transcreener assay, 50 μM ATP, minimum of n=3, read-out: hACC1

Compound | IC50 [1] | IC50 [2, 3] | IC50 [2]
3-{2-[(1-isopropyl-7-oxo-1,4,6,7-tetrahydro-1′H-spiro[indazole-5,4′-piperidin]-1′-yl)carbonyl]-1H-benzimidazol-4-yl}benzoic acid [Example 45] | 10 nM | 4.9 nM | 
3-{5-[(1-isopropyl-7-oxo-1,4,6,7-tetrahydro-1′H-spiro[indazole-5,4′-piperidin]-1′-yl)carbonyl]-6-(methylamino)pyridin-2-yl}benzoic acid [Example 5] | 114 nM | 163 nM | 
4-{5-[(1-tert-butyl-7-oxo-1,4,6,7-tetrahydro-1′H-spiro[indazole-5,4′-piperidin]-1′-yl)carbonyl]-6-(ethylamino)pyridin-2-yl}benzoic acid [Example 13] | 143 nM | 221 nM | 
4-{5-[(1-tert-butyl-7-oxo-1,4,6,7-tetrahydro-1′H-spiro[indazole-5,4′-piperidin]-1′-yl)carbonyl]-6-(methylamino)pyridin-2-yl}benzoic acid [Example 12] | 94.5 nM | 152 nM | 
4-{6-(ethylamino)-5-[(1-isopropyl-7-oxo-1,4,6,7-tetrahydro-1′H-spiro[indazole-5,4′-piperidin]-1′-yl)carbonyl]pyridin-2-yl}benzoic acid [Example 14] | 76.1 nM | 139 nM | 
CC(C)(C)n1ncc2c1C(=O)CC1(CCN(C(=O)c3ccc(OCc4ccc(C(=O)O)cc4)cc3)CC1)C2 [Example 1, 4-((4-(1-Tert-butyl-7-oxo-1,4,6,7-tetrahydrospiro[indazole-5,4′-piperidine]-1′-ylcarbonyl)phenoxy)methyl)benzoic acid] | 184 nM | 176 nM | 
COc1cc(C(=O)N2CCC3(CC2)CC(=O)c2c(cnn2C(C)C)C3)cc(-c2cccc(C(=O)O)c2)n1 [Example 2, 3-(4-(1-Isopropyl-7-oxo-1,4,6,7-tetrahydrospiro[indazole-5,4′-piperidine]-1′-ylcarbonyl)-6-methoxypyridin-2-yl)benzoic acid] | 84.1 nM | 59.6 nM | 
CC(C)n1ncc2c1C(=O)CC1(CCN(C(=O)c3cc(-c4cccc(C(=O)O)c4)[nH]c(=O)c3)CC1)C2 [Example 3, 3-(4-(1-isopropyl-7-oxo-1,4,6,7-tetrahydrospiro[indazole-5,4′-piperidine]-1′-ylcarbonyl)-6-oxo-1,6-dihydropyridin-2-yl)benzoic acid] | 2260 nM | 5400 nM | 
COc1cc(C(=O)N2CCC3(CC2)CC(=O)c2c(cnn2C(C)C)C3)cc(-c2ccc(C(=O)O)cc2)n1 [Example 9, 4-{4-[(1-isopropyl-7-oxo-1,4,6,7-tetrahydro-1′H-spiro[indazole-5,4′-piperidin]-1′-yl)carbonyl]-6-methoxypyridin-2-yl}benzoic acid] | 29.7 nM |  | 30.9 nM

Continued, in another order:

IC50 [1] | IC50 [2, 3] | Compound | IC50 [2]
53 nM | 116 nM | CNc1nc(-c2cccc(C(=O)O)c2)ccc1C(=O)N1CCC2(CC1)CC(=O)c1c(cnn1C(C)(C)C)C2 [Example 4, 3-{5-[(1-tert-butyl-7-oxo-1,4,6,7-tetrahydro-1′H-spiro[indazole-5,4′-piperidin]-1′-yl)carbonyl]-6-(methylamino)pyridin-2-yl}benzoic acid] | 
115 nM | 260 nM | CC(C)(C)n1ncc2c1C(=O)CC1(CCN(C(=O)c3ccc(-c4cccc(C(=O)O)c4)cc3)CC1)C2 [Example 6, 4′-[(1-tert-butyl-7-oxo-1,4,6,7-tetrahydro-1′H-spiro[indazole-5,4′-piperidin]-1′-yl)carbonyl]biphenyl-3-carboxylicacid] | 
74.2 nM | 113 nM | CC(C)n1ncc2c1C(=O)CC1(CCN(C(=O)c3ccc(-c4cccc(C(=O)O)c4)cc3)CC1)C2 [Example 7, 4′-[(1-isopropyl-7-oxo-1,4,6,7-tetrahydro-1′H-spiro[indazole-5,4′-piperidin]-1′-yl)carbonyl]biphenyl-3-carboxylic acid] | 
175 nM | 156 nM | CNc1nc(-c2ccc(C(=O)O)cc2)ccc1C(=O)N1CCC2(CC1)CC(=O)c1c(cnn1C(C)C)C2 [Example 8, 4-{5-[(1-isopropyl-7-oxo-1,4,6,7-tetrahydro-1′H-spiro[indazole-5,4′-piperidin]-1′-yl)carbonyl]-6-(methylamino)pyridin-2-yl}benzoic acid] | 
35.5 nM | 30.1 nM | COc1cc(C(=O)N2CCC3(CC2)CC(=O)c2c(cnn2C(C)(C)C)C3)cc(-c2ccc(C(=O)O)cc2)n1 [Example 10, 4-{4-[(1-tert-butyl-7-oxo-1,4,6,7-tetrahydro-1′H-spiro[indazole-5,4′-piperidin]-1′-yl)carbonyl]-6-methoxypyridin-2-yl}benzoic acid] | 
268 nM | 180 nM | COc1cc(C(=O)N2CCC3(CC2)CC(=O)c2c(cnn2C(C)(C)C)C3)cc(-c2cccc(C(=O)O)c2)n1 [Example 11, 3-{4-[(1-tert-butyl-7-oxo-1,4,6,7-tetrahydro-1′H-spiro[indazole-5,4′-piperidin]-1′-yl)carbonyl]-6-methoxypyridin-2-yl}benzoic acid] | 
7.88 nM | 6.11 nM | CC(C)n1ncc2c1C(=O)CC1(CCN(C(=O)c3cc4c(-c5cccc(C(=O)O)c5)cccc4[nH]3)CC1)C2 [Example 15, 3-{2-[(1-isopropyl-7-oxo-1,4,6,7-tetrahydro-1′H-spiro[indazole-5,4′-piperidin]-1′-yl)carbonyl]-1H-indol-4-yl}benzoic acid] | 
11.6 nM | 9.75 nM | CC(C)n1ncc2c1C(=O)CC1(CCN(C(=O)c3cc4c(-c5ccc(C(=O)O)cc5)cccc4[nH]3)CC1)C2 [Example 16, 4-{2-[(1-isopropyl-7-oxo-1,4,6,7-tetrahydro-1′H-spiro[indazole-5,4′-piperidin]-1′-yl)carbonyl]-1H-indol-4-yl}benzoic acid] | 
21.6 nM | 15.6 nM | CC(C)(C)n1ncc2c1C(=O)CC1(CCN(C(=O)c3cc4c(-c5cccc(C(=O)O)c5)cccc4[nH]3)CC1)C2 [Example 17, 3-{2-[(1-tert-butyl-7-oxo-1,4,6,7-tetrahydro-1′H-spiro[indazole-5,4′-piperidin]-1′-yl)carbonyl]-1H-indol-4-yl}benzoic acid] | 
